According to patent US7538220B2, “Intermediates in the preparation of homocamptothecin analogs” (University of Pittsburgh - of the Commonwealth System of …, priority 1999, dated 2009):

How the values were obtained:
[1] = Lactone ring stability in PBS by HPLC; assay type: physicochemical; details: 37° C., 1 μM
Description: FIG. 12 contrasts the improved stabilities of four novel homosilatecans of the present invention with their corresponding silatecan structure containing the α-hydroxylactone functionality. All the experiments of FIG. 12 were conducted in PBS at 37° C.
(§1) HPLC solvents were from Fisher Scientific.
To determine the stabilities of homosilatecans in PBS, an aliquot of each of the homosilatecans in DMSO was added to phosphate buffered saline (PBS), pH 7.4 in a HPLC autosampler vial maintained at 37° C. in a water bath to result in final drug concentration of 1 μM. The drug-containing vial was quickly transferred to the autosampler maintained at 37° C. and aliquots analyzed at various time points. All the determinations were done in triplicate. The data was collected and analyzed using Waters Millenium software. The fraction of lactone was calculated using the peak area of lactone and carboxylate peak and using the lactone/carboxylate ratio.

[2] = Lactone ring stability in PBS suspensions of albumin-free red blood cells by HPLC; assay type: in vitro ADME, human; details: albumin-free RBC in PBS (5±1)×10^6 cell/μL, 37° C.
Description: FIG. 15 depicts the stabilities of four novel homosilatecans of the current invention in PBS suspensions containing physiologically-relevant concentrations [(5±1)×10^6 cell/μL] of albumin-free red blood cells. Stability characteristics were determined at 37° C. using HPLC methods.
as §1
To study the stabilities of the novel homosilatecans in the presence of physiologically relevant concentrations of red blood cells (RBC), the following experiments were performed. Packed Red blood cells obtained from the Central Kentucky Red Cross and were counted using a Coulter Cell Counter. The number of cells was adjusted to 5×10^12 Cells/L using PBS, pH 7.4 and incubated at 37° C. for 30 min. […] RBCs were incubated at 37° C. for 30 min and the pH remeasured to ensure that it was within the same range as before the assays were started. […] Aliquots of drug in DMSO were added to RBC suspensions in PBS to result in final drug concentration of 1 μM. […] The sample was analyzed on HPLC as soon as possible.

| SMILES | % Lactone ([1]; PBS pH 7.4, 3 hours) | % Lactone ([1]; PBS pH 7.4, 24 hours) | % Lactone ([2]; 3 hours) | % Lactone ([2]; 24 hours) |
| --- | --- | --- | --- | --- |
| CCC1(O)CC(=O)OCc2c1cc1n(c2=O)Cc2c-1nc1ccc(N)cc1c2[Si](C)(C)C (racemic) [DB-38, 5-Ethyl-1,4,5,13-tetrahydro-5-hydroxy-10-amino-12-trimethylsilyl-3H,15H-oxepino[3′,4′:6,7]indolizino[1,2-b]quinoline-3,15-dione] | 82.8 ± 0.7% | 26.8 ± 2.3% | 84.8 ± 1.5% | 39.4 ± 1.2% |
| CCC1(O)CC(=O)OCc2c1cc1n(c2=O)Cc2c-1nc1ccccc1c2[Si](C)(C)C(C)(C)C (racemic) [DB-81, 5-Ethyl-1,4,5,13-tetrahydro-5-hydroxy-12-tert-butyldimethylsilyl-3H,15H-oxepino[3′,4′:6,7]indolizino[1,2-b]quinoline-3,15-dione] | 84.9 ± 0.3% | 30.9 ± 2.0% | 92.0 ± 0.0% | 55.8 ± 1.7% |
| CCC1(O)CC(=O)OCc2c1cc1n(c2=O)Cc2c-1nc1ccc(N)cc1c2[Si](C)(C)C(C)(C)C (racemic) [DB-90, 5-Ethyl-1,4,5,13-tetrahydro-5-hydroxy-10-amino-12-tert-butyldimethylsilyl-3H,15H-oxepino[3′,4′:6,7]indolizino[1,2-b]quinoline-3,15-dione] | 83.7 ± 0.5% | 26.1 ± 1.0% | 85.5 ± 0.4% | 38.5 ± 1.4% |
| CCC1(O)CC(=O)OCc2c1cc1n(c2=O)Cc2c-1nc1ccc(O)cc1c2[Si](C)(C)C(C)(C)C (racemic) [DB-91, 5-Ethyl-1,4,5,13-tetrahydro-5-hydroxy-10-hydroxy-12-tert-butyldimethylsilyl-3H,15H-oxepino[3′,4′:6,7]indolizino[1,2-b]quinoline-3,15-dione] | 83.1 ± 0.3% | 32.2 ± 1.0% | 88.5 ± 0.2% | 42.6 ± 2.6% |
